Positions count from the first letter of the chain named. Like-named read-outs stand apart in the source and are kept apart here. Where no end group is shown, it is not given here.
Assays:
MBP-SNX17 WT = target: T1, MBP-SNX17 WT (Homo sapiens, UniProt Q15036); assay: Fluorescence anisotropy binding of 5-FAM peptides to MBP-SNX17 wild-type
T1 construct: M protein marker, R Retriever complex, FL full-length; His (N, cleaved yes); made in house; host or cells: Escherichia coli BL21(DE3)
T1 sequence (Q15036 1-470): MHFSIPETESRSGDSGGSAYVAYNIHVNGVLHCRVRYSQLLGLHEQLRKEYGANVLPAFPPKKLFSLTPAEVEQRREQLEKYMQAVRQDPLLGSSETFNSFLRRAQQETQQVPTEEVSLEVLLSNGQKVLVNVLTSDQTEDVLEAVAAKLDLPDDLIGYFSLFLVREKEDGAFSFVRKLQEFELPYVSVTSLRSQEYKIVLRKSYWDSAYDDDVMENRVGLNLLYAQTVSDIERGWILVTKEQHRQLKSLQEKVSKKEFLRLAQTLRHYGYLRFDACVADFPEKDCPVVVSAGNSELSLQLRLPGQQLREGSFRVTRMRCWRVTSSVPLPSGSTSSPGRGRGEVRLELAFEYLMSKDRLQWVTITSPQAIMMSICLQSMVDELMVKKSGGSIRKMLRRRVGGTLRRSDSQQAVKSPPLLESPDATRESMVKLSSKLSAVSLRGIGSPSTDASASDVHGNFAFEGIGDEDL
Description: (§1) Lyophilized peptides were resuspended in 100 mM Hepes pH 8.0 at 5 mg/ml and further diluted in the assay buffer (50 mM Hepes pH 7.5, 300 mM NaCl, and 1 mM DTT). […] The mixture was incubated at 25 °C for at least 30 min and then transferred to 96 Flat Black plates. Fluorescence anisotropy was measured at 25 °C using Spark 10M Plate Reader (Tecan) with a 485/20 excitation filter and a 535/35 emission filter. The dissociation constants were calculated in GraphPad Prism by nonlinear regression fitting of the experimental data to a one-site total binding model. The final KD measurement is the mean of at least two independent experiments.

VPS35L-VPS29 = target: T2, VPS35L-VPS29 (Homo sapiens, UniProt Q7Z3J2+Q9UBQ0); assay: Fluorescence anisotropy binding of 5-FAM SNX17CT-18 to VPS35L-VPS29; settings: 0.1 μM 5-FAM peptide, pH 7.5, 300 mM NaCl, 25 °C, two technical replicates (Fig. 3D)
T2 construct: His (N, cleaved yes); made in house; host or cells: High Five insect cells (baculovirus)
Description: as §1

VPS26C = target: T3, VPS26C (Homo sapiens, UniProt O14972); assay: Fluorescence anisotropy binding of 5-FAM SNX17CT-18 to VPS26C; settings: 0.1 μM 5-FAM peptide, pH 7.5, 300 mM NaCl, 25 °C, two technical replicates (Fig. 3D)
T3 construct: His-Sumo3 (N, cleaved yes); made in house; host or cells: Escherichia coli BL21(DE3)
Description: as §1

VPS29 = target: T4, VPS29 (Homo sapiens, UniProt Q9UBQ0); assay: Fluorescence anisotropy binding of 5-FAM SNX17CT-18 to VPS29; settings: 0.1 μM 5-FAM peptide, pH 7.5, 300 mM NaCl, 25 °C, two technical replicates (Fig. 3D)
T4 construct: GST (N, cleaved yes); made in house; host or cells: Escherichia coli BL21(DE3)
Description: as §1

[1] = target: T5, SNX17FERM-CT (amino acids 109-470) (Homo sapiens, UniProt Q15036); assay: Fluorescence anisotropy binding of 5-FAM cargo peptides to SNX17FERM-CT; settings: read-out: KD SNX17FERM-CT
T5 construct: His-Sumo3 (N, cleaved yes); made in house; host or cells: Escherichia coli BL21(DE3)
T5 sequence (Q15036 109-470): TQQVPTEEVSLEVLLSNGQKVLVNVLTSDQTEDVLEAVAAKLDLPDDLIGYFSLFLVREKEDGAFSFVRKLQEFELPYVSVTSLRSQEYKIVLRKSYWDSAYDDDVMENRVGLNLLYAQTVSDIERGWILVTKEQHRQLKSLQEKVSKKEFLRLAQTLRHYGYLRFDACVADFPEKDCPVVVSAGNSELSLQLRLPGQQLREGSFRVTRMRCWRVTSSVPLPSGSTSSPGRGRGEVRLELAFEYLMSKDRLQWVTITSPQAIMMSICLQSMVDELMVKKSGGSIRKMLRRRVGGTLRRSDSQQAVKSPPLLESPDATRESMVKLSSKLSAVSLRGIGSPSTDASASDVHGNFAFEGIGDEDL
Description: as §1

MBP-SNX17W321A = target: T6, MBP-SNX17W321A (Homo sapiens, UniProt Q15036, W321A); assay: Fluorescence anisotropy binding of 5-FAM peptides to MBP-SNX17 W321A
T6 construct: M protein marker, R Retriever complex, FL full-length; His (N, cleaved yes); made in house; host or cells: Escherichia coli BL21(DE3)
T6 sequence (Q15036 1-470 W321A): T1 sequence (Q15036 1-470) with W321A
Description: as §1

MBP-SNX17V380D = target: T7, MBP-SNX17V380D (Homo sapiens, UniProt Q15036, V380D); assay: Fluorescence anisotropy binding of 5-FAM peptides to MBP-SNX17 V380D
T7 construct: M protein marker, R Retriever complex, FL full-length; His (N, cleaved yes); made in house; host or cells: Escherichia coli BL21(DE3)
T7 sequence (Q15036 1-470 V380D): T1 sequence (Q15036 1-470) with V380D
Description: as §1

MBP = MBP (Escherichia coli, UniProt P0AEX9); assay: Fluorescence anisotropy, MBP negative control; format: binding
Description: as §1

MBP-SNX17 L470G = target: T8, MBP-SNX17 L470G (Homo sapiens, UniProt Q15036, L470G); assay: Fluorescence anisotropy binding of 5-FAM cargo peptides to MBP-SNX17 L470G
T8 construct: M protein marker, R Retriever complex, FL full-length; His (N, cleaved yes); made in house; host or cells: Escherichia coli BL21(DE3)
T8 sequence (Q15036 1-470 L470G): T1 sequence (Q15036 1-470) with L470G
Description: as §1, with “The peptides used for binding assays were synthesized with an N-terminal 5-Carboxyfluorescein (FAM) and HPLC purified (≥95%) by GenScript. Lyophilized” for “Lyophilized”

In the case of `CC[C@H](C)[C@H](NC(=O)CNC(=O)[C@H](CCC(=O)O)NC(=O)[C@H](Cc1ccccc1)NC(=O)[C@H](C)NC(=O)[C@H](Cc1ccccc1)NC(=O)[C@H](CC(N)=O)NC(=O)CNC(=O)[C@H](Cc1c[nH]cn1)NC(=O)[C@@H](NC(=O)[C@H](CC(=O)O)NC(=O)[C@H](CO)NC(=O)[C@H](C)NC(=O)c1ccc2c(c1)C(=O)OC21c2ccc(O)cc2Oc2cc(O)ccc21)C(C)C)C(=O)NCC(=O)N[C@@H](CC(=O)O)C(=O)N[C@@H](CCC(=O)O)C(=O)N[C@@H](CC(=O)O)C(=O)N[C@@H](CC(C)C)C(=O)O` [SNX17CT-18], the “KD MBP-SNX17 WT” value (MBP-SNX17 WT; fluorescence anisotropy, 0.1 μM 5-FAM peptide, pH 7.5, 300 mM NaCl, 25 °C, one-site total binding, Bmax fixed at 240, mean ± SD of three biological replicates (Fig. 4E)) is reported as “binds weakly”, the “KD VPS35L-VPS29” value (VPS35L-VPS29) is reported as “weak interaction” and the “KD VPS26C” value (VPS26C) is reported as “no discernible binding”. For the same molecule, the “KD VPS29” value (VPS29) was “no discernible binding”.

Work on KWDTGENPIYKSAV [ITGB1 P-14-mer] yielded a Kd [1] of 72.5 µM.

In the case of MNVEIGNPTYKMYE [LRP1 14-mer], the Kd [1] is reported as 2.23 µM, the Kd (MBP-SNX17 WT) is reported as 3 µM and the Kd (MBP-SNX17W321A) is reported as greater than 32 µM. For the same molecule, the Kd (MBP-SNX17W321A; read-out: KD MBP-SNX17W321A, fluorescence anisotropy, 5-FAM peptide, Bmax fixed at 240, replicate Y2 (Fig. 4E source data)) was greater than 32 µM, the Kd (MBP-SNX17V380D; 0.1 μM 5-FAM peptide, pH 7.5, 300 mM NaCl, 25 °C, one-site total binding, Bmax fixed at 240, three biological replicates (Fig. 4E)) was greater than 32 µM and the Kd (MBP-SNX17V380D; 5-FAM peptide, Bmax fixed at 240, replicate Y1 (Fig. 4E source data), read-out: KD MBP-SNX17V380D) was greater than 32 µM. For the same molecule, the Kd (MBP-SNX17V380D; 5-FAM peptide, Bmax fixed at 240, replicate Y2 (Fig. 4E source data), read-out: KD MBP-SNX17V380D) was greater than 32 µM, the Kd (MBP-SNX17V380D; 5-FAM peptide, Bmax fixed at 240, replicate Y3 (Fig. 4E source data), read-out: KD MBP-SNX17V380D) was greater than 32 µM and the Kd (MBP; 0.1 μM 5-FAM peptide, pH 7.5, 300 mM NaCl, 25 °C (Fig. EV3B), read-out: KD MBP (negative control)) was greater than 32 µM. The Kd (MBP; 5-FAM peptide, replicate Y1 (Fig. 4E source data), read-out: KD MBP) was greater than 32 µM, the Kd (MBP; 5-FAM peptide, replicate Y2 (Fig. 4E source data), read-out: KD MBP) was greater than 32 µM and the Kd (MBP; 5-FAM peptide, replicate Y3 (Fig. 4E source data), read-out: KD MBP) was greater than 32 µM. It also gave a Kd (MBP-SNX17 L470G) of 2.8 ± 0.2 µM.

In the case of QQNGYENPTYKFFE [APP 14-mer], the Kd [1] is reported as 19.1 µM.

Reference: paper PMC11772769, “Selective cargo and membrane recognition by SNX17 regulates its interaction with Retriever” (EMBO Reports, 2024)
